# Structures can show the parent of a compound that is named as a salt.
# Experiments:
# PRMT1 = PRMT1 (Homo sapiens, UniProt Q99873); assay: Radioactive PRMT1 methylation inhibition assay ([3H]-SAM, biotinylated histone H4 peptide); type: biochemical; conditions: for inhibition at 10 µM: compound at 10 μM, read-out: % Inhibition of PRMT1 (at 10 μM); for IC50: radioactive methylation assay, read-out: IC50 (μM) against PRMT1
# Description: A series of 2,5-substituted furan and 2,4-substituted thiazole derivatives were synthesized and screened for their inhibitory effects on PRMT1 by using the radioactive PRMT1 methylation inhibition assay, which measured the amount of methyl groups that transferred from [^3H]-SAM to a biotinylated histone H4 peptide [ac-[…](Biotin)] (Tables 1–3).
# The enzyme inhibitory activities and selectivity were measured by the radioisotope assay and AlphaLISA assay in ShangHai Chempartner Co., Ltd., according to the standard protocol. […] After 250 nL of compound solutions were added to the assay plate, 15 μl of PRMT1 enzyme solution or ×1 assay buffer for negative control was transferred to each well of prepared compound stock plates and the whole system (the final concentration of PRMT1 was 0.5 nM or 2 nM in the system) was incubated for 15 min at room temperature. […] Afterward, the reaction was stopped with the addition of 5 μl cold SAM solution to each well. Then, 25 μl volume per well was transferred to a Flashplate from the assay plate and incubated for a minimum of 1 h at room temperature. Finally, the Flashplate was washed with dH2O and 0.1% Tween-20 three times and then the reading plate in Microbeta using the program ^3H-Flashplate. The data were analyzed in GraphPad Prism 5 to obtain IC50 values.
# PRMT1, sequence (Q99873 whole entry): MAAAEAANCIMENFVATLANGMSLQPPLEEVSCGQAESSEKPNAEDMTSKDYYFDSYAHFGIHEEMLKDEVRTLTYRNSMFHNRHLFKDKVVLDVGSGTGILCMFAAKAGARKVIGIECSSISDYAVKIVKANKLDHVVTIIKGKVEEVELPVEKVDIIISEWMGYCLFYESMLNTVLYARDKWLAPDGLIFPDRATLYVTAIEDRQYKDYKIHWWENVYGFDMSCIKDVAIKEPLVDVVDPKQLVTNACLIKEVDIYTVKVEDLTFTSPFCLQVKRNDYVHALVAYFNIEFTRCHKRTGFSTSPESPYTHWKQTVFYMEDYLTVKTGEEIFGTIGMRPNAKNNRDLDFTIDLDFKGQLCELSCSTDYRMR
Structure (SMILES),melting point [°C],inhibition at 10 µM (PRMT1) [%],IC50 (PRMT1) [µM],PRMT1 IC50 compared with DB75 (PRMT1; fold weaker than DB75),PRMT1 IC50 compared with SAH (PRMT1; fold weaker than SAH)
"CNCCN(C)Cc1ccc(-c2ccc(C(N)=O)cc2)o1 (as salt: hydrochloride) [Compound 1a, N′-[5-(4-Formamide-phen-1-yl)-furan-2-yl-methyl]-N,N′-dimethylethylenediamine Hydrochloride]",212.2 to 214.6,,,,
"CNCCN(C)Cc1ccc(-c2ccc(C(=O)NN)cc2)o1 (as salt: hydrochloride) [Compound 1b, N′-[5-(4-Formylhydrazide-phen-1-yl)-furan-2-yl-methyl]-N,N′-dimethylethylenediamine Hydrochloride]",246.2 to 246.9,,,,
"CNCCN(C)Cc1ccc(-c2ccc(C(N)=NO)cc2)o1 (as salt: hydrochloride) [Compound 1e, N′-[5-(4-N-Hydroxyamidino-phen-1-yl)-furan-2-yl-meth-yl]-N,N′-dimethylethylenediamine Hydrochloride]",231.2 to 232.8,,,,
"CNCCN(C)Cc1ccc(-c2ccc(C(N)=NO)c(F)c2)o1 (as salt: hydrochloride) [Compound 1f, N′-[5-(3-Fluoro-4-N-hydroxyamidino-phen-1-yl)-furan-2-yl-methyl]-N,N′-dimethylethylenediamine Hydrochloride]",216.8 to 218.6,,,,
"CNCCN(C)Cc1ccc(-c2cccc(C(N)=NO)c2)o1 (as salt: hydrochloride) [Compound 1g, N′-[5-(3-N-Hydroxyamidino-phen-1-yl)-furan-2-yl-methyl]-N,N′-dimethylethylenediamine Hydrochloride]",60.8 to 63.2,,,,
"CNCCN(C)Cc1ccc(-c2ccc(C(N)=O)cc2)o1 [Compound 1a, N′-[5-(4-Formamide-phen-1-yl)-furan-2-yl-methyl]-N,N′-dimethylethylenediamine Hydrochloride]",,10.6 ± 2.24,,,
"CNCCN(C)Cc1ccc(-c2ccc(C(=O)NN)cc2)o1 [Compound 1b, N′-[5-(4-Formylhydrazide-phen-1-yl)-furan-2-yl-methyl]-N,N′-dimethylethylenediamine Hydrochloride]",,48 ± 0.02,,,
"CNCCN(C)Cc1ccc(-c2ccc(N)cc2)o1.Cl [Compound 1c, N′-[5-(4-Aminophenyl)-furan-2-yl-methyl]-N,N′-dimeth-ylethylenediamine Hydrochloride]",60.2 to 61.1,50 ± 0.18,21.4 ± 12.8,,
"CNCCN(C)Cc1ccc(-c2cccc(N)c2)o1.Cl [Compound 1d, N′-[5-(3-Aminophenyl)-furan-2-yl-methyl]-N,N′-dimethylethylenediamine Hydrochloride]",64.2 to 65.2,35.99 ± 0.09,,,
"CNCCN(C)Cc1ccc(-c2ccc(C(N)=NO)cc2)o1 [Compound 1e, N′-[5-(4-N-Hydroxyamidino-phen-1-yl)-furan-2-yl-meth-yl]-N,N′-dimethylethylenediamine Hydrochloride]",,32,,,
"CNCCN(C)Cc1ccc(-c2ccc(C(N)=NO)c(F)c2)o1 [Compound 1f, N′-[5-(3-Fluoro-4-N-hydroxyamidino-phen-1-yl)-furan-2-yl-methyl]-N,N′-dimethylethylenediamine Hydrochloride]",,35.97 ± 0.2,,,
"N=C(N)c1ccc(-c2ccc(-c3ccc(C(=N)N)cc3)o2)cc1 [DB75, furamidine, reference compound]",,98.13 ± 0.27,0.31 ± 0.04,,

# Next, values leading:
melting point [°C],inhibition at 10 µM (PRMT1) [%],IC50 (PRMT1) [µM],PRMT1 IC50 compared with DB75 (PRMT1; fold weaker than DB75),PRMT1 IC50 compared with SAH (PRMT1; fold weaker than SAH),Structure (SMILES)
156.5 to 159.2,,,,,"CNCCN(C)Cc1ccc(-c2ccc(C(=N)N)c(F)c2)o1 (as salt: hydrochloride) [Compound 1i, N′-[5-(3-Fluoro-4-amidino-phen-1-yl)-furan-2-yl-methyl]-N,N′-dimethylethylenediamine Hydrochloride]"
223 to 225,,,,,"CNCCN(C)Cc1ccc(-c2ccc(Cl)c(C(=N)N)c2)o1 (as salt: hydrochloride) [Compound 1k, N′-[5-(3-Amidino-4-chloro-phen-1-yl)-furan-2-yl-methyl]-N,N′-dimethylethylenediamine Hydrochloride]"
,39.98 ± 0.19,,,,"CNCCN(C)Cc1ccc(-c2cccc(C(N)=NO)c2)o1 [Compound 1g, N′-[5-(3-N-Hydroxyamidino-phen-1-yl)-furan-2-yl-methyl]-N,N′-dimethylethylenediamine Hydrochloride]"
,68 ± 0.02,4.42 ± 0.63,,,"CNCCN(C)Cc1ccc(-c2ccc(C(=N)N)c(F)c2)o1 [Compound 1i, N′-[5-(3-Fluoro-4-amidino-phen-1-yl)-furan-2-yl-methyl]-N,N′-dimethylethylenediamine Hydrochloride]"
,76.5 ± 0.01,2.5 ± 0.91,,,"CNCCN(C)Cc1ccc(-c2ccc(Cl)c(C(=N)N)c2)o1 [Compound 1k, N′-[5-(3-Amidino-4-chloro-phen-1-yl)-furan-2-yl-methyl]-N,N′-dimethylethylenediamine Hydrochloride]"
75.8 to 78.2,92.12 ± 0.28,1.29 ± 0.12,four times weaker than DB75,about two times weaker than SAH,"CNCCN(C)Cc1ccc(-c2ccc(C(=N)N)nc2)o1.Cl [Compound 1l, N′-[5-(2-Amidino-5-pyridyl)furan-2-yl-methyl]-N,N′-dimethylethylenediamine Hydrochloride]"
95.9 to 98.3,48 ± 0.02,10.8 ± 1.3,,,"CNCCN(Cc1ccc(-c2ccc(C(=N)N)nc2)o1)C1CC1.Cl [Compound 1m, N-Methyl-N′-[5-(2-amidino-5-pyridyl)furan-2-yl-methyl]-N′-cyclopropylethylenediamine Hydrochloride]"
197.7 to 199.3,73.51 ± 0.06,4.68 ± 0.26,,,"Cl.N=C(N)c1ccc(-c2ccc(CN3CCNCC3)o2)cn1 [Compound 1n, N′-[5-(2-Amidino-5-pyridyl)furan-2-yl-methyl]-piperazine Hydrochloride]"
223.4 to 224.8,89.02 ± 0.05,2.41 ± 0.18,,,"CN(CCN)Cc1ccc(-c2ccc(C(=N)N)nc2)o1.Cl [Compound 1o, N′-[5-(2-Amidino-5-pyridyl)furan-2-yl-methyl]-N′-methylethylenediamine Hydrochloride]"

# Source: publication PMC9214036, “Design and Synthesis of Novel PRMT1 Inhibitors and Investigation of Their Effects on the Migration of Cancer Cell” (Frontiers in Chemistry, 2022)
